Results on 8 test systems are retold here after the supplement of paper PMC6045584.

Compound in one assay: C[C@]1(O)C[C@@H](c2nc(-c3ccc4ccc(-c5ccccc5)nc4c3)c3c(N)nccn32)C1 [OSI-906]
Briefly: surviving fraction relative to DMSO-only wells; higher = less growth inhibition. Particulars: exposure time: 5 days. In outline:
(§1)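 Five days of continuous inhibitor exposure, at 0.5, 1, 5, 10, 50, 100, 500 and 1000 nM, followed a 24-hour period after log-phase tumour cell lines were seeded at 250–500 cells per well in 384-well plates. Surviving fraction was derived from CellTiter-Glo luminescence relative to the median of DMSO-only wells. Plates were read after 10 minutes at room temperature, and lines screened three times were kept only if replicate Pearson r >0.7 and median Z' >0.3.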

Compound in the next assay: COCC[n+]1c2c(n(Cc3cnccn3)c1C)C(=O)c1ccccc1C2=O [YM155]
The description is as above. The note with it: exposure time: 5 days. In outline:
as §1

± gives the standard deviation of the averaged measurements.

As for CHLA90 AUTONOMIC GANGLIA, the surviving fraction with OSI-906 (0.5 nM) stood at 0.883 ± 0.046; with OSI-906 (1 nM), 0.904 ± 0.019; in the assay with OSI-906 (5 nM) it was 0.862 ± 0.036; in the assay with OSI-906 (10 nM), 0.828 ± 0.08; with OSI-906 (50 nM), 0.832 ± 0.059; with OSI-906 (100 nM) it was 0.792 ± 0.084. The surviving fraction in the assay with OSI-906 (500 nM) was 0.78 ± 0.056; with OSI-906 (1000 nM) it was 0.725 ± 0.082; with YM155 (0.5 nM), 0.807 ± 0.017; with YM155 (1 nM), 0.926 ± 0.075; in the assay with YM155 (5 nM) it was 0.734 ± 0.057; with YM155 (10 nM) it was 0.44 ± 0.057. The surviving fraction with YM155 (50 nM) was found to be 0.106 ± 0.028; with YM155 (100 nM), 0.0633 ± 0.013; in the assay with YM155 (500 nM), 0.025 ± 0.0027; in the assay with YM155 (1000 nM), 0.0273 ± 0.0015.

Take HCC1806 BREAST: the surviving fraction turned out to be 0.722 ± 0.032 with OSI-906 (0.5 nM); 0.721 ± 0.093 with OSI-906 (1 nM); 0.783 ± 0.11 in the assay with OSI-906 (5 nM); 0.822 ± 0.03 with OSI-906 (10 nM); 0.962 ± 0.077 with OSI-906 (50 nM); 1.07 ± 0.064 with OSI-906 (100 nM). In addition, the surviving fraction was 0.883 ± 0.04 with OSI-906 (500 nM); 0.826 ± 0.036 in the assay with OSI-906 (1000 nM); 1.04 ± 0.077 with YM155 (0.5 nM); 1.08 ± 0.15 with YM155 (1 nM); 0.308 ± 0.016 with YM155 (5 nM); 0.284 ± 0.01 with YM155 (10 nM). The surviving fraction amounted to 0.064 ± 0.0027 in the assay with YM155 (50 nM), 0.05 ± 0.0044 with YM155 (100 nM), 0.024 in the assay with YM155 (500 nM) and 0.0257 ± 0.0015 with YM155 (1000 nM).

With SCC003 HEADNECK, the surviving fraction came out at 0.796 ± 0.018 in the assay with OSI-906 (0.5 nM); 0.865 ± 0.028 with OSI-906 (1 nM); 0.88 ± 0.099 with OSI-906 (5 nM); 0.87 ± 0.011 in the assay with OSI-906 (10 nM); 1.02 ± 0.022 with OSI-906 (50 nM); 1.04 ± 0.013 with OSI-906 (100 nM). The surviving fraction in the assay with OSI-906 (500 nM) turned out to be 0.976 ± 0.04; with OSI-906 (1000 nM), 0.845 ± 0.04; with YM155 (0.5 nM), 1.072 ± 0.0061; with YM155 (1 nM), 1.02 ± 0.071; with YM155 (5 nM) it was 0.82 ± 0.12; with YM155 (10 nM), 0.502 ± 0.14. The surviving fraction in the assay with YM155 (50 nM) was found to be 0.086 ± 0.0066; with YM155 (100 nM) it was 0.052 ± 0.0046; in the assay with YM155 (500 nM), 0.024; with YM155 (1000 nM), 0.025 ± 0.0017.

For HT1080 SOFT TISSUE, the surviving fraction with OSI-906 (0.5 nM) came out at 1 ± 0.042; with OSI-906 (1 nM), 1.02 ± 0.023; in the assay with OSI-906 (5 nM), 1.02 ± 0.021; with OSI-906 (10 nM), 1 ± 0.017; with OSI-906 (50 nM), 0.979 ± 0.039; with OSI-906 (100 nM), 0.921 ± 0.027. In addition, the surviving fraction worked out at 0.899 ± 0.03 with OSI-906 (500 nM); 0.869 ± 0.057 with OSI-906 (1000 nM); 1.03 ± 0.021 with YM155 (0.5 nM); 0.954 ± 0.035 in the assay with YM155 (1 nM); 0.433 ± 0.0064 with YM155 (5 nM); 0.237 ± 0.017 in the assay with YM155 (10 nM). In addition, the surviving fraction in the assay with YM155 (50 nM) came to 0.063 ± 0.0027; with YM155 (100 nM), 0.0373 ± 0.0021; with YM155 (500 nM), 0.0277 ± 0.00058; with YM155 (1000 nM), 0.0297 ± 0.00058.

Regarding NY BONE, the surviving fraction with OSI-906 (0.5 nM) is 0.9347 ± 0.009; in the assay with OSI-906 (1 nM), 0.9183 ± 0.0031; with OSI-906 (5 nM), 1.027 ± 0.01; with OSI-906 (10 nM), 0.96 ± 0.011; with OSI-906 (50 nM), 1 ± 0.011; with OSI-906 (100 nM), 0.977 ± 0.035. For the same test system, the surviving fraction in the assay with OSI-906 (500 nM) is 0.903 ± 0.023; with OSI-906 (1000 nM), 0.915 ± 0.038; with YM155 (0.5 nM) it was 0.911 ± 0.035; in the assay with YM155 (1 nM), 0.949 ± 0.017; with YM155 (5 nM) it was 0.965 ± 0.021; with YM155 (10 nM) it was 0.997 ± 0.031. Also, the surviving fraction in the assay with YM155 (50 nM) is 1.01 ± 0.02; with YM155 (100 nM) it was 0.988 ± 0.037; in the assay with YM155 (500 nM) it was 0.449 ± 0.023; with YM155 (1000 nM), 0.346 ± 0.0047.

For the test system SG28 HEADNECK, the surviving fraction in the assay with OSI-906 (0.5 nM) was found to be 0.829 ± 0.16; in the assay with OSI-906 (1 nM), 0.78 ± 0.098; in the assay with OSI-906 (5 nM) it was 0.769 ± 0.16; with OSI-906 (10 nM), 0.792 ± 0.02; with OSI-906 (50 nM) it was 0.88 ± 0.06; with OSI-906 (100 nM), 0.867 ± 0.089. In addition, the surviving fraction with OSI-906 (500 nM) is 0.692 ± 0.021; in the assay with OSI-906 (1000 nM), 0.547 ± 0.034; in the assay with YM155 (0.5 nM), 1.07 ± 0.083; with YM155 (1 nM) it was 1.17 ± 0.066; with YM155 (5 nM), 0.882 ± 0.025; with YM155 (10 nM), 0.631 ± 0.05. In addition, the surviving fraction with YM155 (50 nM) was 0.105 ± 0.005; in the assay with YM155 (100 nM), 0.058 ± 0.013; in the assay with YM155 (500 nM), 0.0285 ± 0.00071; in the assay with YM155 (1000 nM) it was 0.033 ± 0.0014.

In the case of HMLE3 BREAST, the surviving fraction in the assay with OSI-906 (0.5 nM) is 0.808 ± 0.068; with OSI-906 (1 nM), 0.887 ± 0.071; with OSI-906 (5 nM) it was 0.931 ± 0.045; in the assay with OSI-906 (10 nM), 0.841 ± 0.0091; in the assay with OSI-906 (50 nM), 0.875 ± 0.047; in the assay with OSI-906 (100 nM), 0.901 ± 0.079. Further, the surviving fraction in the assay with OSI-906 (500 nM) turned out to be 0.783 ± 0.035; with OSI-906 (1000 nM) it was 0.724 ± 0.12; in the assay with YM155 (0.5 nM) it was 0.974 ± 0.062; with YM155 (1 nM), 1.06 ± 0.15; in the assay with YM155 (5 nM) it was 0.425 ± 0.072; with YM155 (10 nM), 0.129 ± 0.02. Also, the surviving fraction in the assay with YM155 (50 nM) turned out to be 0.0257 ± 0.00058; with YM155 (100 nM), 0.0227 ± 0.00058; with YM155 (500 nM), 0.018 ± 0.001; with YM155 (1000 nM), 0.0213 ± 0.00058.

In the case of KPD BONE, the surviving fraction in the assay with OSI-906 (0.5 nM) came out at 0.958 ± 0.037; with OSI-906 (1 nM), 0.978 ± 0.051; with OSI-906 (5 nM), 0.9457 ± 0.0072; in the assay with OSI-906 (10 nM), 0.952 ± 0.097; with OSI-906 (50 nM), 0.796 ± 0.018; with OSI-906 (100 nM), 0.557 ± 0.021. Besides, the surviving fraction came out at 0.112 ± 0.0049 in the assay with OSI-906 (500 nM); 0.081 ± 0.019 with OSI-906 (1000 nM); 0.966 ± 0.037 in the assay with YM155 (0.5 nM); 0.995 ± 0.068 in the assay with YM155 (1 nM); 0.519 ± 0.033 in the assay with YM155 (5 nM); 0.266 ± 0.046 with YM155 (10 nM). The surviving fraction in the assay with YM155 (50 nM) is 0.0473 ± 0.0081; in the assay with YM155 (100 nM) it was 0.0347 ± 0.004; in the assay with YM155 (500 nM), 0.0237 ± 0.0025; with YM155 (1000 nM) it was 0.0257 ± 0.0021.
